Test results taken from patent US8772341B2, “Compositions for the treatment of hoof diseases” (DeLaval Holding AB, priority 2006, dated 2014).

Experiments:
E. coli (ATCC 11229) = experiment: modified AOAC sanitizer test (germicidal activity, with or without manure); assay type: cell-based, Escherichia coli
Experimental: (§1) The germicidal activity of a large number of ingredients has been tested for the ability to kill Escherichia coli and Staphylococcus aureus in mixtures that have been contaminated with 10% and 20% manure. E. coli and S. aureus were chosen as representative bacteria for screening purposes. Solutions of the mixtures with 10% manure and bacteria were prepared, and the reduction in the concentration of bacteria was determined after 30 seconds and again after 5 minutes. In addition, the formulas were evaluated for skin irritation based on in vitro test data. The testing method used was that of Wolfgang J. W. Pape, Udo Hoppe: In vitro Methods for the Assessment of Primary Local Effects of Topically Applied Preparations. Skin Pharmacol. (1991), 4: 205-212, which is incorporated herein by reference.
(§2) Experiments were performed to test the germicidal properties of the disclosed compositions using a modified version of the AOAC sanitizer test (Association of Official Analytical Chemists. 1990. Official Methods of Analysis, Pages 138-140 in Germicidal and Detergent Sanitizing Action of Disinfectants 960.09, Vol. I. 15th ed. AOAC, Arlington, Va.). According to this procedure, manure was collected from a dairy farm, dispensed into flasks and autoclaved at 121° C. and 17 psi for 30 minutes. Manure samples were then stored in a freezer until needed. When needed, manure was thawed at room temperature then dispensed into 250 mL Erlenmeyer flasks in amounts appropriate for the challenge desired (10 g for 10% manure, 20 g for 20% manure, etc.). The flasks with manure, and any empty flasks needed, were capped with aluminum foil and autoclaved at 134° C. and ˜20 psi for 4 min.
(§3) Freeze-dried pellets of E. coli (ATCC 11229) and S. aureus (ATCC 6538) were hydrated, placed in test tubes containing nutrient agar and incubated at 37° C. for 24 hours. Sterile buffer (0.0003 M phosphate adjusted to pH 6.6) was used to dilute and transfer the bacteria to additional nutrient agar tubes, which were incubated for another 24 hours. S. aureus was then diluted with buffer and transferred to nutrient agar in French bottles, and E. coli was diluted and transferred to fresh nutrient agar tubes. Both types of bacteria were incubated at 37° C. for 72 hours. E. coli was then diluted and transferred to nutrient agar in French bottles. Sterile buffer and glass beads were added to the S. aureus French bottles and the solution was vacuum filtered through a #2 filter. […] After 24 hours, the E. coli suspension was collected in the same manner.
(§4) Germicide sample solutions were prepared and dispensed into the flasks containing manure. For tests without manure, 99 mL of germicide were added to an empty, sterile, 250 mL flask. […]

S. aureus (ATCC 6538) = experiment: as above; assay type: cell-based, Staphylococcus aureus
Experimental: as §1, §2, §3, §4

red blood cells = experiment: in vitro irritation test on isolated red blood cells (haemolysis, denaturation); assay type: cell-based, calf; settings: 18% solution
Experimental: as §1
Irritation tests were performed to determine whether or not the disclosed compositions would be mild enough for topical application. These tests involved two measurements made on fresh calf blood, where red blood cells were isolated by adding 50 mL of sodium citrate buffer (17.03 g trisodium citrate+8.45 g citric acid diluted to 1 L with bacteria-free DI water) to every 450 mL of blood, then repetitively washing with sodium citrate buffer and centrifuging to remove white blood cells and plasma.
Compositions disclosed herein were introduced into a container containing the isolated red blood cells and values for Haemolysis (H50); a Denaturation Index value (DI); and a Lysis/Denaturation Ratio (L/D) were determined using methods disclosed by Wolfgang J. W. Pape, Udo Hoppe: In vitro Methods for the Assessment of Primary Local Effects of Topically Applied Preparations. Skin Pharmacol. (1991), 4: 205-212. The haemolysis—or tendency of the red blood cells to rupture when in contact with the test product—was measured by the half-haemolysis value H50. The denaturation of protein caused by the test product was measured by the denaturation index (DI). The overall irritation value for a product was determined by the ratio of the H50/DI which is referred to as the lysis/denaturation quotient. The overall irritation score is given by the lysis/denaturation value which is calculated by the equation: L/D=H50 (measured in ppm)/DI (measured in %).
The higher the ppm value for H50 the less irritating the product. A crude scale is H50>500 ppm (non-irritant); 120-500 (slight irritant), 30-120 (moderate irritant), 10-30 (irritant) and 0-10 (strong irritant).
The L/D ratio is the primary value used to determine irritation. […]

[1] = test system: Bovine Digital Dermatitis (BDD) associated treponeme strains; experiment: Treponema study, broth microdilution germicidal susceptibility (MIC/MBC); assay type: cell-based; settings: for MBC (minimal bactericidal concentration): average over six Treponema cultures
Source text: In an experiment carried out at the University of Liverpool, Liverpool, U.K., Treponema species were isolated from dairy farms and six cultures were used to measure the minimum inhibitory concentration (MIC, the lowest concentration which results in maintenance or reduction of inoculum's viability) and minimal bactericidal concentration (MBC, the lowest concentration which results in biocidal activity) of several commonly used germicides.
Six Bovine Digital Dermatitis (BDD) associated treponeme strains (Table 1) were used to investigate in vitro susceptibility of BDD associated Treponema (Evans, N. J.; Brown, J.; Demirkan, I.; Carter, S. D.; Hart, C. A. “In vitro susceptibility of Bovine Digital Dermatitis associated Treponema to antimicrobial agents” to be submitted to Antimicrob. Agents Chemother. To be submitted for publication September 2007). The strains included two isolates from each of three distinct phylogroups corresponding to three proposed new taxa, Treponema medium subsp. bovis, Treponema bovis and Treponema pedis (Evans, N. J.; Brown, J.; Demirkan, I. Murray, R. D.; Vink, D.; Blowey, R. W.; Hart, C. A.; Carter, S. D. “Tremponema medium subsp. bovis subsp. nov., Treponema bovis sp. nov. and Treponema pedis sp. nov.; novel spirochaetes associated with Bovine Digital Dermatitis.” International Journal of Systematic and Evolutionary Microbiology. Submitted for publication Oct. 18, 2006). […]
To determine MIC values, absorbance at 540 nm was measured for the microplate wells using a Multiskan microtitre plate reader (Thermo Scientific, Hampshire, U.K.). Measurements were recorded before and after incubation at 36° C. under anaerobic conditions—three days for T. pedis strains and four days for T. bovis and T. medium subsp. bovis strains. […] Cell growth was determined by comparison of the absorbance measurement immediately before and after incubation. […]
Microplates were incubated for a further four days at 36° C. under anaerobic conditions. Growth was assessed using phase contrast microscopy. […]

[2] = test system: hoof diseases (heel erosion, interdigital dermatitis, foot rot, white line abscess, digital dermatitis); experiment: field trial of hoof bath at a commercial dairy farm; assay type: in vivo, cows; settings: for Digital Dermatitis, number of hooves / Foot Rot, number of hooves / Heel Erosion, number of hooves / Interdigital Dermatitis, number of hooves / Total number of hoof problems / White Line Abscess, number of hooves: 178 hooves
Experimental: An 18% solution of N,N-bis(3-aminopropyl)dodecylamine with 0.17% FD&C Red #40 and 0.28% FD&C Yellow #5 was tested in a field trial at a commercial dairy farm. The product was diluted at a rate of 1+66 V/V and used to fill a hoof bath trough that the cows walked through as they left the milking parlor. A fresh hoof bath solution was prepared every day and the cows walked through the solution once each day of the week. For a month before the trial began no hoof bath treatment was applied to the cows. At the start of the trial a complete evaluation of the front and hind hooves was performed by a certified hoof trimmer, along with a veterinarian, who recorded the diseases observed in each hoof. The evaluation of the hooves was again performed after the hoof bath had been used for two months. All hooves that were present for both evaluations, and were not were not treated with antibiotics and wrapped at the first evaluation, were included in the data. […] The trial included 178 hooves.

[3] = 18% solution diluted 1+33 with potable water, 5 minutes exposure, 20% manure
[4] = 18% solution diluted 1+66 with potable water (0.27%), 30 seconds exposure, 20% manure
[5] = 18% solution diluted 1+66 with potable water (0.27%), 5 minutes exposure, no manure
[6] = 18% solution diluted 1+180 with potable water (0.1%), 5 minutes exposure, 10% manure
[7] = Primary Evaluation (start of trial, before hoof bath)
[8] = Secondary Evaluation after two months of daily hoof bath, 1+66 V/V

CCCCCCCCCCCCN(CCCN)CCCN [N,N-bis(3-aminopropyl)dodecylamine]
log reduction (E. coli (ATCC 11229); [3]): > 8.0 log | log reduction (E. coli (ATCC 11229); [4]): > 8 log | log reduction (E. coli (ATCC 11229); [5]): > 8 log | log reduction (E. coli (ATCC 11229); [6]): > 7.97 log | log reduction (S. aureus (ATCC 6538); [3]): > 7.94 log | log reduction (S. aureus (ATCC 6538); [4]): 4.8 log | log reduction (S. aureus (ATCC 6538); [5]): > 8 log | log reduction (S. aureus (ATCC 6538); [6]): > 7.94 log | skin irritation (conclusion from L/D) (red blood cells): does not cause skin irritation | combined L/D value (lysis/denaturation ratio) (red blood cells; L/D = H50/DI): 7×10^3 | DI value (denaturation index) (red blood cells; calf red blood cells): 2.6% | H50 value (half-haemolysis) (red blood cells; calf red blood cells): 18000 ppm | MBC (minimal bactericidal concentration) [1]: 0.00051 % w/w | Digital Dermatitis, number of hooves [2, 7]: 33 | Foot Rot, number of hooves [2, 7]: 0 | Heel Erosion, number of hooves [2, 7]: 43 | Interdigital Dermatitis, number of hooves [2, 7]: 2 | Total number of hoof problems [2, 7]: 78 | White Line Abscess, number of hooves [2, 7]: 0 | Digital Dermatitis, number of hooves [2, 8]: 25 | Foot Rot, number of hooves [2, 8]: 0 | Interdigital Dermatitis, number of hooves [2, 8]: 0 | Total number of hoof problems [2, 8]: 51 | White Line Abscess, number of hooves [2, 8]: 1 | Heel Erosion, number of hooves ([2]; Secondary Evaluation after two months of daily hoof bath, 18% solution with dyes diluted 1+66 V/V): 25 | reduction in the total number of hoof problems ([2]; after two months of hoof bath treatment): ~35% | hooves with digital dermatitis at the beginning of the trial that were cured ([2]; after two months of treatment): Forty | hooves not infected at the beginning that did not develop any signs of digital dermatitis ([2]; by the end of the two month treatment): ninety

O=S(=O)([O-])[O-].[Cu+2] [copper sulfate]
MBC (minimal bactericidal concentration) [1]: 0.0054 % w/w

C=O [formaldehyde]
average MEC ([1]; six Treponema cultures): 0.0094 % w/w
